Measured values as given in US20100092526A1, “NANOEMULSION THERAPEUTIC COMPOSITIONS AND METHODS OF USING THE SAME” (NanoBio Corporation, priority 2008, published 2010).
Like-named read-outs stand apart in the source and are kept apart here.

Legend:
[1] = test system: Burkholderia cenocepacia; assay: MIC/MBC against CF isolates (CLSI, alamar blue); settings: Burkholderia cenocepacia
[2] = test system: Escherichia coli; assay: MIC/MBC of nanoemulsions against gram-negative isolates (CLSI, alamar blue); type: cell-based; settings: Escherichia coli (n = 5)
[3] = test system: Burkholderia cepacia; assay: as above; type: cell-based; settings: Burkholderia cepacia (n = 5)
[4] = test system: Acinetobacter baumannii; assay: MIC/MBC against clinical isolates (CLSI, alamar blue); settings: Acinetobacter baumannii
[5] = test system: Proteus mirabilis; assay: MIC/MBC of nanoemulsions against gram-negative isolates (CLSI, alamar blue); type: cell-based; settings: Proteus mirabilis (n = 5)
[6] = test system: Stenotrophomonas maltophilia; assay: MIC/MBC against CF isolates (CLSI, alamar blue); settings: Stenotrophomonas maltophilia
[7] = nanoemulsions in the presence of 5 mM EDTA
[8] = nanoemulsions in the presence of 5 mM EDTA, in µg/mL
[9] = CF Stenotrophomonas isolate NB41
[10] = CF Stenotrophomonas isolate NB42
[11] = CF Stenotrophomonas isolate NB43
[12] = CF Stenotrophomonas isolate NB44
[13] = CF Stenotrophomonas isolate NB45
[14] = CF Stenotrophomonas isolate Steno 1
[15] = CF Stenotrophomonas isolate Steno 2
[16] = CF Stenotrophomonas isolate Steno 3
[17] = CF Stenotrophomonas isolate Steno 4
[18] = CF Stenotrophomonas isolate Steno 6
[19] = CF Stenotrophomonas isolate Steno 8

C[C@H]1COc2c(N3CCN(C)CC3)c(F)cc3c(=O)c(C(=O)O)cn1c23 [Levofloxacin]
40.0%: % resistant [2]
1 µg/mL: MIC ([1]; CF Burkholderia isolate NB28b) | MIC ([1]; CF Burkholderia isolate NB29) | MBC ([1]; CF Burkholderia isolate NB30) | MIC ([1]; CF Burkholderia isolate NB30) | MBC ([4]; Acinetobacter isolate NB36) | MIC ([4]; Acinetobacter isolate NB36) | MIC [6, 13] | MIC [6, 14] | MIC [6, 16]
16 µg/mL: MIC50 [4] | MBC ([4]; Acinetobacter isolate NB31) | MIC ([4]; Acinetobacter isolate NB31) | MBC ([4]; Acinetobacter isolate NB34) | MIC ([4]; Acinetobacter isolate NB34) | MBC ([4]; Acinetobacter isolate NB37) | MIC ([4]; Acinetobacter isolate NB37) | MBC ([4]; Acinetobacter isolate NB39) | MIC ([4]; Acinetobacter isolate NB39) | MBC ([4]; read-out: MBC 50, 10 Acinetobacter isolates) | MBC [6] | MBC [6, 10] | MBC [6, 12]
0.0%: % resistant [3] | % resistant [5]
60.0%: % susceptible [2]
> 16 µg/mL: MIC90 [4] | MBC ([4]; Acinetobacter isolate NB35) | MIC ([4]; Acinetobacter isolate NB35) | MBC ([4]; Acinetobacter isolate NB38) | MBC ([4]; Acinetobacter isolate NB40) | MIC ([4]; Acinetobacter isolate NB40)
4 µg/mL: MIC ([1]; CF Burkholderia isolate NB25) | MIC ([1]; CF Burkholderia isolate NB27) | MBC ([1]; CF Burkholderia isolate NB29) | MBC [6, 9] | MBC [6, 11] | MBC [6, 14] | MIC [6, 15] | MBC [6, 16] | MBC [6, 18] | MBC ([6]; read-out: MBC 50, 11 CF Stenotrophomonas isolates)
0.5 µg/mL: MIC [6, 17]
1-2: MIC Range [3, 8]
100.0%: % susceptible [3] | % susceptible [5]
0.03 µg/mL: MIC50 [2, 7]
8 µg/mL: MBC ([1]; CF Burkholderia isolate NB26) | MIC ([1]; CF Burkholderia isolate NB26) | MBC ([1]; CF Burkholderia isolate NB27) | MBC ([4]; Acinetobacter isolate NB32) | MIC ([4]; Acinetobacter isolate NB32) | MBC ([4]; Acinetobacter isolate NB33) | MIC ([4]; Acinetobacter isolate NB33) | MIC ([4]; Acinetobacter isolate NB38) | MIC90 [6] | MIC [6, 10] | MIC [6, 12] | MBC [6, 15]
0.06-2: MIC Range [5, 8]
0.12 µg/mL: MIC50 [5, 7]
2 µg/mL: MBC ([1]; CF Burkholderia isolate NB28b) | MIC50 [3, 7] | MIC50 [6] | MIC [6, 9] | MIC [6, 11] | MBC [6, 13] | MBC [6, 17] | MIC [6, 18] | MBC [6, 19] | MIC [6, 19]
